Reference: patent US5939100A, “Composition for drug delivery comprising nicotine or a derivative thereof and starch microspheres and method for the manufacturing thereof” (Pharmacia and UpJohn AB, priority 1993, dated 1999)
Like-named read-outs stand apart in the source and are kept apart here.

Assay: Intravenous administration of nicotine in rats (plasma nicotine, pharmacokinetics)
Type: in vivo, rat (male Lewis rats, Lew/Mol)
Details: rat, 0.15 mg/kg BW
From the text: The plasma values obtained after i.v. administration of nicotine were just like those obtained by intranasal administration analysed for the number of phases.
One phase was recognized corresponding to only one elimination phase.
The model was fitted to the data using weighted least squares algoritm with the weighing factor=1.
The plasma nicotine values as a function of time after i.v. administration of nicotine are shown in the below Table 3 and FIG. 2. Six animals were used in the study. The pharmacokinetic parameters are calculated as described for the data obtained by intranasal administration.

For CN1CCCC1c1cccnc1 (stereo not drawn) [nicotine], the concentration at […] (15 minutes after i.v. adm., read-out: Plasma nicotine values, average for 6 rats) was 47 ng/mL, the concentration at 0.5 h (30 minutes after i.v. adm., read-out: Plasma nicotine values, average for 6 rats) was 61 ng/mL and the concentration at 0.75 h (45 minutes after i.v. adm., read-out: Plasma nicotine values, average for 6 rats) was 86 ng/mL. It also gave a concentration at 1 h (60 minutes after i.v. adm., read-out: Plasma nicotine values, average for 6 rats) of 50 ng/mL, a concentration at […] (75 minutes after i.v. adm., read-out: Plasma nicotine values, average for 6 rats) of 51 ng/mL and a concentration at […] (90 minutes after i.v. adm., read-out: Plasma nicotine values, average for 6 rats) of 38 ng/mL. It also gave a concentration at 1.75 h (105 minutes after i.v. adm., read-out: Plasma nicotine values, average for 6 rats) of 38 ng/mL, a concentration at 2 h (120 minutes after i.v. adm., read-out: Plasma nicotine values, average for 6 rats) of 59 ng/mL and a concentration at […] (150 minutes after i.v. adm., read-out: Plasma nicotine values, average for 6 rats) of 36 ng/mL. The concentration at 3 h (180 minutes after i.v. adm., read-out: Plasma nicotine values, average for 6 rats) was 22 ng/mL, the concentration at 3.5 h (210 minutes after i.v. adm., read-out: Plasma nicotine values, average for 6 rats) was 25 ng/mL and the concentration at 4 h (240 minutes after i.v. adm., read-out: Plasma nicotine values, average for 6 rats) was 20 ng/mL. The half-life (i.v., SIPHAR, read-out: Half-life (Ke line)) was 2.6 h, the k el (i.v., SIPHAR, read-out: Ke, parameter value (converted)) was 7.33e-05 s⁻¹ and the AUC(0-inf) (i.v., trapezoidal rule, read-out: AUC0-.infin. (converted)) was 262 ng·h/mL.
